Measured values taken from patent publication US8618138B2, “Indole amide derivatives and related compounds for use in the treatment of neurodegenerative diseases” (Katholieke Universiteit Leuven, K.U. Leuven R&D, priority 2009, dated 2013).

Test system: M17-TAU P301L cells
Experiment: TAU cytotoxicity assay: LDH leakage of retinoic acid incubated M17-TAU P301L cells
Type: cell-based, human
Conditions: Homo sapiens, 168 h, reduction of LDH activity of retinoic acid incubated M17-TAU P301L cells, 7 days
In short: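 M17 neuroblastoma cells stably expressing human TAU P301L, seeded at 2500 cells/cm2 in Optimem with 1% FCS, then given 2.5 μM retinoic acid (stock before 1:1 addition) and grown 7 days at 37 °C. Cytotoxicity read as LDH leaked into medium; EC50 derived from these measurements.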

| SMILES | EC50 [nM] |
| --- | --- |
| Cn1nccc1C(=O)NCCc1c[nH]c2ccc(Cl)cc12 [Example D119, N-(2-(5-chloro-1H-indol-3-yl)ethyl)-1-methyl-1H-pyrazole-5-carboxamide] | 1030 |
| CC(C)(C)c1cc(C(=O)NCCc2c[nH]c3ccc(Cl)cc23)n(Cc2ccccc2)n1 [Example D120, 1-benzyl-3-tert-butyl-N-(2-(5-chloro-1H-indol-3-yl)ethyl)-1H-pyrazole-5-carboxamide] | 868 |
| O=C(NCCc1c[nH]c2ccc(Cl)cc12)c1cc(CO)on1 [Example D121, N-(2-(5-chloro-1H-indol-3-yl)ethyl)-5-(hydroxymethyl)isoxazole-3-carboxamide] | 105 |
| CCOCc1cc(C(=O)NCCc2c[nH]c3ccc(Cl)cc23)no1 [Example D123, N-(2-(5-chloro-1H-indol-3-yl)ethyl)-5-(ethoxymethyl)isoxazole-3-carboxamide] | 19 |
| CN(C)c1cc(C(=O)NCCc2c[nH]c3ccc(Cl)cc23)no1 [Example D124, N-(2-(5-chloro-1H-indol-3-yl)ethyl)-5-(dimethylamino)isoxazole-3-carboxamide] | 5290 |
| CCN(CC)Cc1cc(C(=O)NCCc2c[nH]c3ccc(Cl)cc23)no1 [Example D125, N-(2-(5-chloro-1H-indol-3-yl)ethyl)-5-((diethylamino)methyl)isoxazole-3-carboxamide] | 347 |
| O=C(CCc1c[nH]c2ccc(Cl)cc12)N1CCN(Cc2ccccc2)C1 [Example D126, 1-(3-benzylimidazolidin-1-yl)-3-(5-chloro-1H-indol-3-yl)propan-1-one] | 357 |
| O=C(NCCc1c[nH]c2ncc(Cl)cc12)c1cc(C(=O)c2cc(F)ccc2F)on1 [Example D127, N-(2-(5-chloro-1H-pyrrolo[2,3-b]pyridin-3-yl)ethyl)-5-(2,5-difluorobenzoyl)isoxazole-3-carboxamide] | 436 |
| O=C(NCCc1c[nH]c2ncc(Cl)cc12)c1cc(Cc2cc(F)ccc2F)on1 [Example D128, N-(2-(5-chloro-1H-pyrrolo[2,3-b]pyridin-3-yl)ethyl)-5-(2,5-difluorobenzyl)isoxazole-3-carboxamide] | 105 |
| O=C(NCCc1c[nH]c2ccc(Cl)cc12)c1cc(Cc2ccc(F)c(F)c2)on1 [Example D129, N-(2-(5-chloro-1H-indol-3-yl)ethyl)-5-(3,4-difluorobenzyl)isoxazole-3-carboxamide] | 8 |
| O=C(NCCc1c[nH]c2ccc(Cl)cc12)c1cc(Cc2cccc(F)c2F)on1 [Example D130, N-(2-(5-chloro-1H-indol-3-yl)ethyl)-5-(2,3-difluorobenzyl)isoxazole-3-carboxamide] | 20 |
| O=C(NCCc1c[nH]c2ccc(Cl)cc12)c1cc(Cc2cc(F)cc(F)c2)on1 [Example D131, N-(2-(5-chloro-1H-indol-3-yl)ethyl)-5-(3,5-difluorobenzyl)isoxazole-3-carboxamide] | 13 |
| O=C(NCCc1c[nH]c2ccc(Cl)cc12)C1CCN(c2ccc(C(F)(F)F)cc2)C1=O (stereo not drawn) [Example D132, N-(2-(5-chloro-1H-indol-3-yl)ethyl)-2-oxo-1-(4-(trifluoromethyl)phenyl)pyrrolidine-3-carboxamide] | 57 |
| Cc1ccc(N2CCC(C(=O)NCCc3c[nH]c4ccc(Cl)cc34)C2=O)cc1 (stereo not drawn) [Example D133, N-(2-(5-chloro-1H-indol-3-yl)ethyl)-2-oxo-1-p-tolylpyrrolidine-3-carboxamide] | 46 |
| CC(=O)c1ccc(N2CCC(C(=O)NCCc3c[nH]c4ccc(Cl)cc34)C2=O)cc1 (stereo not drawn) [Example D134, 1-(4-acetylphenyl)-N-(2-(5-chloro-1H-indol-3-yl)ethyl)-2-oxopyrrolidine-3-carboxamide] | 86 |
| O=C(NCCc1c[nH]c2ccc(C(F)(F)F)cc12)c1cc(Cc2cc(F)ccc2F)on1 [Example D135, 5-(2,5-difluorobenzyl)-N-(2-(5-(trifluoromethyl)-1H-indol-3-yl)ethyl)isoxazole-3-carboxamide] | 144 |
| Cc1cc2c(CCNC(=O)c3cc(Cc4cc(F)ccc4F)on3)c[nH]c2cc1Cl [Example D136, N-(2-(6-chloro-5-methyl-1H-indol-3-yl)ethyl)-5-(2,5-difluorobenzyl)isoxazole-3-carboxamide] | 741 |
| N#Cc1ccc2[nH]cc(CCNC(=O)c3cc(Cc4cc(F)ccc4F)on3)c2c1 [Example D137, N-(2-(5-cyano-1H-indol-3-yl)ethyl)-5-(2,5-difluorobenzyl)isoxazole-3-carboxamide] | 32 |
| O=C(c1cc(Cc2cc(F)ccc2F)on1)N1CCC(c2c[nH]c3ccccc23)CC1 [Example D138, (4-(1H-indol-3-yl)piperidin-1-yl)(5-(2,5-difluorobenzyl)isoxazol-3-yl)methanone] | 418 |
| O=C(c1cc(Cc2cc(F)ccc2F)on1)N1CCC(c2c[nH]c3ccc(Cl)cc23)CC1 [Example D139, (4-(5-chloro-1H-indol-3-yl)piperidin-1-yl)(5-(2,5-difluorobenzyl)isoxazol-3-yl)methanone] | 186 |

| SMILES | EC50 [nM] |
| --- | --- |
| O=C(NCCc1c[nH]c2ccc(-c3ccccc3)cc12)c1cc(Cc2cc(F)ccc2F)on1 [Example D140, 5-(2,5-difluorobenzyl)-N-(2-(5-phenyl-1H-indol-3-yl)ethyl)isoxazole-3-carboxamide] | 316 |
| O=C(NCCc1c[nH]c2c(F)cc(Cl)cc12)c1cc(Cc2cc(F)ccc2F)on1 [Example D141, N-(2-(5-chloro-7-fluoro-1H-indol-3-yl)ethyl)-5-(2,5-difluorobenzyl)isoxazole-3-carboxamide] | 233 |
| O=C(NCCc1c[nH]c2ccc(Cl)cc12)C1CCN(c2ccc(Cl)c(F)c2)C1=O (stereo not drawn) [Example D142, N-(2-(5-chloro-1H-indol-3-yl)ethyl)-1-(4-chloro-3-fluorophenyl)-2-oxopyrrolidine-3-carboxamide] | 561 |
| Cc1ccc(N2CCC(C(=O)NCCc3c[nH]c4ccc(Cl)cc34)C2=O)cc1C (stereo not drawn) [Example D143, N-(2-(5-chloro-1H-indol-3-yl)ethyl)-1-(3,4-dimethylphenyl)-2-oxopyrrolidine-3-carboxamide] | 1020 |
| O=C(NCCc1c[nH]c2ccc(Cl)cc12)C1CCN(c2ccc3c(c2)CCC3)C1=O (stereo not drawn) [Example D145, N-(2-(5-chloro-1H-indol-3-yl)ethyl)-1-(2,3-dihydro-1H-inden-5-yl)-2-oxopyrrolidine-3-carboxamide] | 137 |
| O=C(NCCc1c[nH]c2ccc(Cl)cc12)C1CCN(c2ccc3c(c2)COC3)C1=O (stereo not drawn) [Example D146, N-(2-(5-chloro-1H-indol-3-yl)ethyl)-1-(1,3-dihydroisobenzofuran-5-yl)-2-oxopyrrolidine-3-carboxamide] | 1160 |
| COc1ccc(N2CCC(C(=O)NCCc3c[nH]c4ccc(Cl)cc34)C2=O)cc1F (stereo not drawn) [Example D147, N-(2-(5-chloro-1H-indol-3-yl)ethyl)-1-(3-fluoro-4-methoxyphenyl)-2-oxopyrrolidine-3-carboxamide] | 379 |
| O=C(NCCc1c[nH]c2ccc(Cl)cc12)C1CCN(c2ccc(F)c(F)c2)C1=O (stereo not drawn) [Example D148, N-(2-(5-chloro-1H-indol-3-yl)ethyl)-1-(3,4-difluorophenyl)-2-oxopyrrolidine-3-carboxamide] | 691 |
| O=C(NCCc1c[nH]c2ccc(Cl)cc12)C1CCN(C2CC2)C1=O (stereo not drawn) [Example D149, N-(2-(5-chloro-1H-indol-3-yl)ethyl)-1-cyclopropyl-2-oxopyrrolidine-3-carboxamide] | 2090 |
| O=C(NCCc1c[nH]c2ccc(Cl)cc12)C1CCN(c2ccc(C(F)(F)F)c(F)c2)C1=O (stereo not drawn) [Example D150, N-(2-(5-chloro-1H-indol-3-yl)ethyl)-1-(3-fluoro-4-(trifluoromethyl)phenyl)-2-oxopyrrolidine-3-carboxamide] | 23300 |
| O=C(NCCc1c[nH]c2ccc(Cl)cc12)C1CCN(c2c(F)cccc2F)C1=O (stereo not drawn) [Example D151, N-(2-(5-chloro-1H-indol-3-yl)ethyl)-1-(2,6-difluorophenyl)-2-oxopyrrolidine-3-carboxamide] | 561 |
| Cc1ccc(N2CCC(C(=O)NCCc3c[nH]c4ccc(Cl)cc34)C2=O)cc1F (stereo not drawn) [Example D152, N-(2-(5-chloro-1H-indol-3-yl)ethyl)-1-(3-fluoro-4-methylphenyl)-2-oxopyrrolidine-3-carboxamide] | 99 |
| O=C(NCCc1c[nH]c2ccc(Cl)cc12)C1CCN(c2ccc(Cl)cc2)C1=O (stereo not drawn) [Example D153, N-(2-(5-chloro-1H-indol-3-yl)ethyl)-1-(4-chlorophenyl)-2-oxopyrrolidine-3-carboxamide] | 365 |
| O=C(NCCc1c[nH]c2ccc(Cl)cc12)C1CCN(c2cccc(-n3cccc3)c2)C1=O (stereo not drawn) [Example D155, 1-(3-(1H-pyrrol-1-yl)phenyl)-N-(2-(5-chloro-1H-indol-3-yl)ethyl)-2-oxopyrrolidine-3-carboxamide] | 1370 |
| CCc1ccccc1N1CCC(C(=O)NCCc2c[nH]c3ccc(Cl)cc23)C1=O (stereo not drawn) [Example D157, N-(2-(5-chloro-1H-indol-3-yl)ethyl)-1-(2-ethylphenyl)-2-oxopyrrolidine-3-carboxamide] | 1210 |
| Cc1ccccc1N1CCC(C(=O)NCCc2c[nH]c3ccc(Cl)cc23)C1=O (stereo not drawn) [Example D158, N-(2-(5-chloro-1H-indol-3-yl)ethyl)-2-oxo-1-o-tolylpyrrolidine-3-carboxamide] | 1030 |
| Cc1cccc(N2CCC(C(=O)NCCc3c[nH]c4ccc(Cl)cc34)C2=O)c1 (stereo not drawn) [Example D159, N-(2-(5-chloro-1H-indol-3-yl)ethyl)-2-oxo-1-m-tolylpyrrolidine-3-carboxamide] | 900 |
| Cn1ccc(N2CCC(C(=O)NCCc3c[nH]c4ccc(Cl)cc34)C2=O)n1 (stereo not drawn) [Example D160, N-(2-(5-chloro-1H-indol-3-yl)ethyl)-1-(1-methyl-1H-pyrazol-3-yl)-2-oxopyrrolidine-3-carboxamide] | 1040 |
| COc1cccc(N2CCC(C(=O)NCCc3c[nH]c4ccc(Cl)cc34)C2=O)c1 (stereo not drawn) [Example D162, N-(2-(5-chloro-1H-indol-3-yl)ethyl)-1-(3-methoxyphenyl)-2-oxopyrrolidine-3-carboxamide] | 233 |
